According to patent publication US20080057529A1, “Method for Identifying Histone Deacetylase Inhibitors” (priority 2003, published 2008):

Key:
Assay type in all cases: cell-based, human
p21 minimal promoter [1] = test: Transient transfection of HeLa cells with p21m-BLA reporter plasmid, Bla staining (blue cells); conditions: Apicidin 1 μM; for % Blue cells: Table 3, 2 μg p21m-BLA + 0.1 μg pCMV-Luc, TSA 300 nM; for Bla staining at 60 min. / fold-ind. at 60 min. (Bla): Table 6; for fold-ind. at 60 min. (Bla) / fold-ind. at 15 min. (Bla): vs DMSO; for Bla staining at 15 min / fold-ind. at 15 min. (Bla): Table 7 (repeat)
Description: (§1) The p21m-BLA reporter plasmid was tested in transient transfection experiments of HeLa cells to evaluate the responsiveness of the minimal p21 promoter and the Bla reporter system to known HDAC inhibitors. In the first two transfection experiments, HeLa cells were transfected with 1 or 2 μg of Bla reporter plasmid containing either p21 minimal promoter (p21m-BLA) or CMV promoter (CMV-BLA) and 0.1 μg of pCMV-Luc or pRSV-Luc control plasmids. Different DNA-FUGENE transfection reagent ratios were tested (FUGENE is available from Roche Applied Science, Indianapolis, Ind.). […] Data are summarized below in Tables 1 and 2.
(§2) The percentage of β-lactamase-positive cells increased with time independent of the presence of HDAC inhibitors and was constantly higher with p21m-BLA than with pCMV-BLA.
(§3) In light of the above, the lack of apparent Bla activation in the above transfection experiments might have been due to the high sensitivity of the method. Therefore, transient transfections in which an accurate titration of the reporter plasmid DNA were performed. The titration of the reporter plasmid included using amounts lower than was used above. […] The transient transfections were repeated and the result confirmed (Table 7).

CMV promoter = test: Transient transfection of HeLa cells with CMV-BLA (pCMV-BLA) reporter plasmid, Bla staining (blue cells); conditions: Apicidin 1 μM; for % Blue cells: Table 3, 2 μg pCMV-BLA + 0.1 μg pCMV-Luc, TSA 300 nM; for Bla staining at 60 min. / fold-ind. at 60 min. (Bla): Table 6; for fold-ind. at 60 min. (Bla): vs DMSO
Description: as §1, §2, §3

HeLa cells = test: Cell death in transiently transfected HeLa cells; conditions: after 6 hours; TSA 300 nM, Apicidin 1 μM; transfected HeLa cells
Description: as §1, §2

p21 minimal promoter [2] = test: Fluorometric β-lactamase activity assay in stable HeLa clone 1.17 (p21m-BLA)
Description: All clones were screened for the presence of stably and functional integrated copies of the p21m-BLA reporter gene transcription cassette by performing a fluorometric β-lactamase activity assay after treatment with the HDAC inhibitor Apicidin at a concentration of 1 μM (saturating dose representing 100% of Bla gene activation, i.e., 100% of HDAC inhibition). A 100 μL aliquot of cells for each stable transformant in complete DMEM was plated into a well of a 96 well plate at about 36,000 cells per well for treatment with 1 μM Apicidin (saturating dose) and a 100 μL aliquot of cells was plated into a well of a 96 well plate at 24,000 cells per well for treatment with DMSO (vehicle control). […] After 4 hours, 25 μL of complete DMEM containing Apicidin at 5× final concentration or DMSO (5%) was added to each of the wells. The cells were then grown at 37° C., 5% CO2 for about 12 to 16 hours. Afterwards, the medium was removed and 100 μL of DMEM without serum and 25 μL of FRET labeled CCF2-AM Bla substrate diluted in the appropriate buffer according to the manufacturer recommendations were each added to the cells to give a final concentration of 1 μM CCF2-AM.

p21 minimal promoter [3] = test: Transient transfection of HeLa cells with p21m-SEAP reporter plasmid, SEAP activity; conditions: Apicidin 1 μM
Description: To determine whether the p21 minimal promoter was responsive to HDAC inhibitors, a reporter plasmid containing the secreted alkaline phosphatase gene (SEAP) operably linked to the p21 minimal promoter (−182 through +25), pcDNA3-21m-SEAP, was tested in transient transfection experiments of HeLa cells. […] All data summarized in Tables 4 through 7 were obtained by normalizing the total amount of transfected DNA to 2.1 μg using a promoterless plasmid.

SMILES: CCC(=O)CCCCC[C@@H]1NC(=O)[C@H]2CCCCN2C(=O)[C@H]([C@@H](C)CC)NC(=O)[C@H](Cc2cn(OC)c3ccccc23)NC1=O [Apicidin]
- induction of β-lactamase activity (p21 minimal promoter [1]; only with the lowest DNA amounts): 3- to 5 fold
- % Blue cells (p21 minimal promoter [1]; 6 hr treatment): 6%
- % Blue cells (p21 minimal promoter [1]; 12 hr treatment): 10%
- % Blue cells (p21 minimal promoter [1]; 24 hr treatment): 25%
- Bla staining at 60 min. (p21 minimal promoter [1]; p21m-BLA 0 μg DNA): 0%
- Bla staining at 60 min. (p21 minimal promoter [1]; p21m-BLA 0.02 μg DNA): 2-3%
- fold-ind. at 60 min. (Bla) (p21 minimal promoter [1]; p21m-BLA 0.02 μg DNA): 3-4 fold
- Bla staining at 60 min. (p21 minimal promoter [1]; p21m-BLA 0.05 μg DNA): 10-15%
- fold-ind. at 60 min. (Bla) (p21 minimal promoter [1]; p21m-BLA 0.05 μg DNA): 5 fold
- Bla staining at 60 min. (p21 minimal promoter [1]; p21m-BLA 0.1 μg DNA): 25-30%
- fold-ind. at 60 min. (Bla) (p21 minimal promoter [1]; p21m-BLA 0.1 μg DNA): 2 fold
- Bla staining at 60 min. (p21 minimal promoter [1]; p21m-BLA 0.2 μg DNA): 35-40%
- fold-ind. at 60 min. (Bla) (p21 minimal promoter [1]; p21m-BLA 0.2 μg DNA): 2 fold
- Bla staining at 60 min. (p21 minimal promoter [1]; p21m-BLA 0.5 μg DNA): 50%
- fold-ind. at 60 min. (Bla) (p21 minimal promoter [1]; p21m-BLA 0.5 μg DNA): 1.25 fold
- Bla staining at 15 min (p21 minimal promoter [1]; p21m-BLA 0 μg DNA): 0%
- Bla staining at 15 min (p21 minimal promoter [1]; p21m-BLA 0.02 μg DNA): 6-10%
- fold-ind. at 15 min. (Bla) (p21 minimal promoter [1]; p21m-BLA 0.02 μg DNA): 2-3 fold
- Bla staining at 15 min (p21 minimal promoter [1]; p21m-BLA 0.05 μg DNA): 20-25%
- fold-ind. at 15 min. (Bla) (p21 minimal promoter [1]; p21m-BLA 0.05 μg DNA): 4-5 fold
- Bla staining at 15 min (p21 minimal promoter [1]; p21m-BLA 0.1 μg DNA): 25-30%
- fold-ind. at 15 min. (Bla) (p21 minimal promoter [1]; p21m-BLA 0.1 μg DNA): 2 fold
- Bla staining at 15 min (p21 minimal promoter [1]; p21m-BLA 0.2 μg DNA): 40%
- fold-ind. at 15 min. (Bla) (p21 minimal promoter [1]; p21m-BLA 0.2 μg DNA): 1.3 fold
- Bla staining at 15 min (p21 minimal promoter [1]; p21m-BLA 0.5 μg DNA): 40%
- fold-ind. at 15 min. (Bla) (p21 minimal promoter [1]; p21m-BLA 0.5 μg DNA): 1 fold
- % Blue cells (CMV promoter; 6 hr treatment): 4%
- % Blue cells (CMV promoter; 12 hr treatment): 3%
- % Blue cells (CMV promoter; 24 hr treatment): 10%
- Bla staining at 60 min. (CMV promoter; pCMV-BLA 0 μg DNA): 0%
- Bla staining at 60 min. (CMV promoter; pCMV-BLA 0.02 μg DNA): 5%
- fold-ind. at 60 min. (Bla) (CMV promoter; pCMV-BLA 0.02 μg DNA): 1 fold
- Bla staining at 60 min. (CMV promoter; pCMV-BLA 0.05 μg DNA): 5-10%
- fold-ind. at 60 min. (Bla) (CMV promoter; pCMV-BLA 0.05 μg DNA): 1 fold
- Bla staining at 60 min. (CMV promoter; pCMV-BLA 0.1 μg DNA): 10-15%
- fold-ind. at 60 min. (Bla) (CMV promoter; pCMV-BLA 0.1 μg DNA): 1 fold
- Bla staining at 60 min. (CMV promoter; pCMV-BLA 0.2 μg DNA): 20%
- fold-ind. at 60 min. (Bla) (CMV promoter; pCMV-BLA 0.2 μg DNA): 1 fold
- Bla staining at 60 min. (CMV promoter; pCMV-BLA 0.5 μg DNA): 40%
- fold-ind. at 60 min. (Bla) (CMV promoter; pCMV-BLA 0.5 μg DNA): 1 fold
- Cell-death (HeLa cells): not visible
- EC50 (p21 minimal promoter [2]; Homo sapiens, HeLa, 13 h, read-out: p21m-Bla EC50): 170 nM
- induction over DMSO (slope analysis of β-lactamase activity) (p21 minimal promoter [2]; clone 1.17, saturating amounts of Apicidin (1 μM)): ~200 fold
- induction of SEAP (maximum) (p21 minimal promoter [3]; TSA 300 nM, p21m-SEAP promoter titration in HeLa): up to 20 fold
- SEAP (10 min) (p21 minimal promoter [3]; Table 4, P21m-SEAP 0 μg DNA (total DNA 2.1 μg)): 11366
